From PubChem BioAssay (NCI)
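Grown in 96-well plates, cells were treated for 48 hours with each compound at five concentrations. Insufficient inhibition: endpoint recorded as highest concentration tested. Abbreviation: GI50, concentration required for 50% inhibition of growth. TGI: concentration producing complete growth inhibition.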

How the values were obtained:
Test in all cases: NCI tumour cell line growth inhibition, 48 h
786-0 renal = test system: 786-0 renal
A498 renal = test system: A498 renal
A549 NSCLC = test system: A549 NSCLC
ACHN renal = test system: ACHN renal
BT-549 breast = test system: BT-549 breast
CAKI-1 renal = test system: CAKI-1 renal
CCRF-CEM leukemia = test system: CCRF-CEM leukemia
COLO 205 colon = test system: COLO 205 colon
DU-145 prostate = test system: DU-145 prostate
EKVX NSCLC = test system: EKVX NSCLC
HCC-2998 colon = test system: HCC-2998 colon
HCT-116 colon = test system: HCT-116 colon
HCT-15 colon = test system: HCT-15 colon
HL-60(TB) leukemia = test system: HL-60(TB) leukemia
HOP-62 NSCLC = test system: HOP-62 NSCLC
HOP-92 NSCLC = test system: HOP-92 NSCLC
HS 578T breast = test system: HS 578T breast
HT29 colon = test system: HT29 colon
IGROV1 ovarian = test system: IGROV1 ovarian
K-562 leukemia = test system: K-562 leukemia
KM12 colon = test system: KM12 colon
LOX IMVI melanoma = test system: LOX IMVI melanoma
M14 melanoma = test system: M14 melanoma
MALME-3M melanoma = test system: MALME-3M melanoma
MCF7 breast = test system: MCF7 breast
MDA-MB-231 breast = test system: MDA-MB-231 breast
MDA-MB-435 = test system: MDA-MB-435
MOLT-4 leukemia = test system: MOLT-4 leukemia
NCI-H226 lung = test system: NCI-H226 lung
NCI-H23 lung = test system: NCI-H23 lung
NCI-H460 lung = test system: NCI-H460 lung
NCI-H522 lung = test system: NCI-H522 lung
NCI/ADR-RES ovarian = test system: NCI/ADR-RES ovarian
OVCAR-3 ovarian = test system: OVCAR-3 ovarian
OVCAR-4 ovarian = test system: OVCAR-4 ovarian
OVCAR-5 ovarian = test system: OVCAR-5 ovarian
OVCAR-8 ovarian = test system: OVCAR-8 ovarian
PC-3 prostate = test system: PC-3 prostate
RPMI-8226 leukemia = test system: RPMI-8226 leukemia
RXF 393 renal = test system: RXF 393 renal
SF-268 CNS = test system: SF-268 CNS
SF-295 CNS = test system: SF-295 CNS
SF-539 CNS = test system: SF-539 CNS
SK-MEL-2 melanoma = test system: SK-MEL-2 melanoma
SK-MEL-28 melanoma = test system: SK-MEL-28 melanoma
SK-MEL-5 melanoma = test system: SK-MEL-5 melanoma
SK-OV-3 ovarian = test system: SK-OV-3 ovarian
SN12C renal = test system: SN12C renal
SNB-19 CNS = test system: SNB-19 CNS
SNB-75 CNS = test system: SNB-75 CNS
SR leukemia = test system: SR leukemia
SW-620 colon = test system: SW-620 colon
T-47D breast = test system: T-47D breast
TK-10 renal = test system: TK-10 renal
U251 CNS = test system: U251 CNS
UACC-257 melanoma = test system: UACC-257 melanoma
UACC-62 melanoma = test system: UACC-62 melanoma
UO-31 renal = test system: UO-31 renal

CCOC(=O)Nc1ccc2nc(N3CCCCCC3)sc2c1
GI50 (786-0 renal): 6.86 µM | TGI (786-0 renal): > 100 µM | GI50 (A498 renal): 2.1 µM | TGI (A498 renal): 32.2 µM | GI50 (A549 NSCLC): 3.32 µM | TGI (A549 NSCLC): > 100 µM | GI50 (ACHN renal): 9.6 µM | TGI (ACHN renal): > 74.1 µM | GI50 (BT-549 breast): 12 µM | TGI (BT-549 breast): 49.6 µM | GI50 (CAKI-1 renal): 2.2 µM | TGI (CAKI-1 renal): > 59.5 µM | GI50 (CCRF-CEM leukemia): 1.97 µM | TGI (CCRF-CEM leukemia): > 100 µM | GI50 (COLO 205 colon): 1.35 µM | TGI (COLO 205 colon): > 59 µM | GI50 (DU-145 prostate): 4 µM | TGI (DU-145 prostate): > 83.3 µM | GI50 (EKVX NSCLC): 5.14 µM | TGI (EKVX NSCLC): > 100 µM | GI50 (HCC-2998 colon): 7.59 µM | TGI (HCC-2998 colon): 48 µM | GI50 (HCT-116 colon): 0.573 µM | TGI (HCT-116 colon): > 77.9 µM | GI50 (HCT-15 colon): 0.84 µM | TGI (HCT-15 colon): > 46.2 µM | GI50 (HL-60(TB) leukemia): 0.436 µM | TGI (HL-60(TB) leukemia): 21 µM | GI50 (HOP-62 NSCLC): 3.75 µM | TGI (HOP-62 NSCLC): > 100 µM | GI50 (HOP-92 NSCLC): 6.15 µM | TGI (HOP-92 NSCLC): 58.9 µM | GI50 (HS 578T breast): 4.53 µM | TGI (HS 578T breast): > 100 µM | GI50 (HT29 colon): 0.44 µM | TGI (HT29 colon): 9.87 µM | GI50 (IGROV1 ovarian): 4.36 µM | TGI (IGROV1 ovarian): > 100 µM | GI50 (K-562 leukemia): 0.501 µM | TGI (K-562 leukemia): > 72.6 µM | GI50 (KM12 colon): 0.661 µM | TGI (KM12 colon): > 57.5 µM | GI50 (LOX IMVI melanoma): 2.16 µM | TGI (LOX IMVI melanoma): > 100 µM | GI50 (M14 melanoma): 0.719 µM | TGI (M14 melanoma): > 70.4 µM | GI50 (MALME-3M melanoma): 1.35 µM | TGI (MALME-3M melanoma): 55.7 µM | GI50 (MCF7 breast): 0.857 µM | TGI (MCF7 breast): > 80.6 µM | GI50 (MDA-MB-231 breast): 3.19 µM | TGI (MDA-MB-231 breast): > 56.8 µM | GI50 (MDA-MB-435): 0.204 µM | TGI (MDA-MB-435): 0.567 µM | GI50 (MOLT-4 leukemia): 3.47 µM | TGI (MOLT-4 leukemia): > 92.9 µM | GI50 (NCI-H226 lung): 12.3 µM | TGI (NCI-H226 lung): > 68 µM | GI50 (NCI-H23 lung): 7.95 µM | TGI (NCI-H23 lung): > 100 µM | GI50 (NCI-H460 lung): 1.4 µM | TGI (NCI-H460 lung): > 38.7 µM | GI50 (NCI-H522 lung): 1.83 µM | TGI (NCI-H522 lung): 13.2 µM | GI50 (NCI/ADR-RES ovarian): 1.03 µM | TGI (NCI/ADR-RES ovarian): > 36.6 µM | GI50 (OVCAR-3 ovarian): 1.66 µM | TGI (OVCAR-3 ovarian): 10.7 µM | GI50 (OVCAR-4 ovarian): 23.7 µM | TGI (OVCAR-4 ovarian): > 100 µM | GI50 (OVCAR-5 ovarian): 8.28 µM | TGI (OVCAR-5 ovarian): > 100 µM | GI50 (OVCAR-8 ovarian): 4.51 µM | TGI (OVCAR-8 ovarian): > 63.4 µM | GI50 (PC-3 prostate): 3.49 µM | TGI (PC-3 prostate): > 100 µM | GI50 (RPMI-8226 leukemia): 3.33 µM | TGI (RPMI-8226 leukemia): 26.3 µM | GI50 (RXF 393 renal): 1.99 µM | TGI (RXF 393 renal): > 26.2 µM | GI50 (SF-268 CNS): 8.25 µM | TGI (SF-268 CNS): > 100 µM | GI50 (SF-295 CNS): 0.856 µM | TGI (SF-295 CNS): 11.4 µM | GI50 (SF-539 CNS): 1.59 µM | TGI (SF-539 CNS): > 27.4 µM | GI50 (SK-MEL-2 melanoma): 2.67 µM | TGI (SK-MEL-2 melanoma): > 72.5 µM | GI50 (SK-MEL-28 melanoma): 7.14 µM | TGI (SK-MEL-28 melanoma): > 91.7 µM | GI50 (SK-MEL-5 melanoma): 1.04 µM | TGI (SK-MEL-5 melanoma): 15.9 µM | GI50 (SK-OV-3 ovarian): 2.36 µM | TGI (SK-OV-3 ovarian): > 72.8 µM | GI50 (SN12C renal): 5.08 µM | TGI (SN12C renal): > 100 µM | GI50 (SNB-19 CNS): 2.84 µM | TGI (SNB-19 CNS): > 100 µM | GI50 (SNB-75 CNS): 2.07 µM | TGI (SNB-75 CNS): > 31.4 µM | GI50 (SR leukemia): 0.405 µM | TGI (SR leukemia): > 100 µM | GI50 (SW-620 colon): 0.567 µM | TGI (SW-620 colon): > 100 µM | GI50 (T-47D breast): 4.7 µM | TGI (T-47D breast): > 84.3 µM | GI50 (TK-10 renal): 5.07 µM | TGI (TK-10 renal): > 91 µM | GI50 (U251 CNS): 1.09 µM | TGI (U251 CNS): > 100 µM | GI50 (UACC-257 melanoma): 15.2 µM | TGI (UACC-257 melanoma): 97.2 µM | GI50 (UACC-62 melanoma): 1.45 µM | TGI (UACC-62 melanoma): > 100 µM | GI50 (UO-31 renal): 6.17 µM | TGI (UO-31 renal): 75.1 µM
